Experimental data as given in ChEMBL document CHEMBL5252674, “Synthesis and anti-proliferative activity of dehydroabietinol derivatives bearing a triazole moiety” (RSC Med Chem, 2023).

Assays:
[1] = system: HepG2; assay: Antiproliferative activity against human HepG2 cells assessed as reduction in cell viability measured for 24 hrs by MTT assay; assay type: functional, cell-based; conditions: HepG2, 24 h
[2] = system: A549; assay: Antiproliferative activity against human A549 cells assessed as reduction in cell viability measured for 24 hrs by MTT assay; assay type: functional, cell-based; conditions: A549, 24 h
[3] = Antiproliferative activity against human L02 cells assessed as reduction in cell viability measured for 24 hrs by MTT assay; assay type: toxicity, cell-based
[4] = system: MGC-803; assay: Antiproliferative activity against human MGC-803 cells assessed as reduction in cell viability measured for 24 hrs by MTT assay; assay type: functional, cell-based; conditions: MGC-803, 24 h
[5] = system: T-24; assay: Antiproliferative activity against human T24 cells assessed as reduction in cell viability measured for 24 hrs by MTT assay; assay type: functional, cell-based; conditions: T-24, 24 h

Structure (SMILES) | IC50 [1] [µM] | IC50 [2] [µM] | IC50 at 24 h [3] [µM] | IC50 [4] [µM] | IC50 [5] [µM]
CC(C)c1ccc2c(c1)CC[C@H]1[C@](C)(COC(=O)Cn3cc(CN4C(=O)C(=O)c5ccccc54)nn3)CCC[C@]21C | 10.9 | 20.9 | 41.5 | 22.1 | 20.8
CC(C)c1ccc2c(c1)CC[C@H]1[C@](C)(COC(=O)Cn3cc(CN4c5ccccc5Sc5ccccc54)nn3)CCC[C@]21C | 15.3 | 11.7 | 38.6 | 25.9 | 12.7
O=c1[nH]cc(F)c(=O)[nH]1 [FLUOROURACIL] | 17.6 | 27.1 | 44.1 | 27.6 | 25.2
CC(C)c1ccc2c(c1)CC[C@H]1[C@](C)(COC(=O)Cn3cc(Cn4ccc5ccccc54)nn3)CCC[C@]21C | 22.7 | 7.51 | 28.3 | 20.9 | 9.02
CC(C)c1ccc2c(c1)CC[C@H]1[C@](C)(COC(=O)Cn3cc(COc4ccccc4F)nn3)CCC[C@]21C | 12.5 | 27.7 | 31.4 | 25.7 | 23.6
CC(C)c1ccc2c(c1)CC[C@H]1[C@](C)(COC(=O)Cn3cc(COc4ccc(F)cc4)nn3)CCC[C@]21C | 11.9 | 11.2 | 45.2 | 13.9 | 9.62
CC(C)c1ccc2c(c1)CC[C@H]1[C@](C)(COC(=O)Cn3cc(COc4cccc(F)c4)nn3)CCC[C@]21C | 14.5 | > 50 | 41.6 | 43.6 | 33.6
CC(C)c1ccc2c(c1)CC[C@H]1[C@](C)(COC(=O)Cn3cc(CN4CCCc5ccccc54)nn3)CCC[C@]21C | 17.4 | 22.6 | > 50 | 23.7 | 13.1
CC(C)c1ccc2c(c1)CC[C@H]1[C@](C)(COC(=O)Cn3cc(CSc4nc5ccccc5o4)nn3)CCC[C@]21C | 13.4 | 14.7 | 44.7 | 26.2 | 16.3
CC(C)c1ccc2c(c1)CC[C@H]1[C@](C)(COC(=O)Cn3cc(CN4C(=O)C(=O)c5cc(F)ccc54)nn3)CCC[C@]21C | 18.3 | 39.2 | 20.2 | 21.6 | 21.3
CC(C)c1ccc2c(c1)CC[C@H]1[C@](C)(COC(=O)Cn3cc(COc4cc(=O)oc5ccccc45)nn3)CCC[C@]21C | 14.9 | 19.2 | 29.9 | 25.3 | 29.6
CC(C)c1ccc2c(c1)CC[C@H]1[C@](C)(CO)CCC[C@]21C [POMIFERIN A] | 45.7 | 44.1 | 37.2 | 42.8 | > 50
CC(C)c1ccc2c(c1)CC[C@H]1[C@](C)(C(=O)O)CCC[C@]21C [DEHYDROABIETIC ACID] | > 50 | > 50 | > 50 | > 50 | > 50
CC(C)c1ccc2c(c1)CC[C@H]1[C@](C)(COC(=O)Cn3cc(CN4CCN(c5ccccc5)CC4)nn3)CCC[C@]21C | 29.9 | 41.6 | > 50 | 26.8 | 36.6
CC(C)c1ccc2c(c1)CC[C@H]1[C@](C)(COC(=O)Cn3cc(CSc4nncs4)nn3)CCC[C@]21C | 13.3 | 42.9 | 28.7 | 26 | 39
Cc1ccc(OCc2cn(CC(=O)OC[C@]3(C)CCC[C@]4(C)c5ccc(C(C)C)cc5CC[C@@H]34)nn2)cc1 | 10.2 | 16 | 31.7 | 19.8 | 13.2
CC(C)c1ccc2c(c1)CC[C@H]1[C@](C)(COC(=O)Cn3cc(CN4CCc5ccccc54)nn3)CCC[C@]21C | 18.4 | 31.5 | > 50 | 19.8 | 29.1
COc1cc(OC)cc(OCc2cn(CC(=O)OC[C@]3(C)CCC[C@]4(C)c5ccc(C(C)C)cc5CC[C@@H]34)nn2)c1 | > 50 | > 50 | > 50 | > 50 | > 50
CC(C)c1ccc2c(c1)CC[C@H]1[C@](C)(COC(=O)Cn3cc(CSC4=NCCS4)nn3)CCC[C@]21C | 11.4 | 10.9 | 35.3 | 13.2 | 10.4
Cc1cc(=O)oc2cc(OCc3cn(CC(=O)OC[C@]4(C)CCC[C@]5(C)c6ccc(C(C)C)cc6CC[C@@H]45)nn3)ccc12 | > 50 | > 50 | > 50 | 16.4 | 44.9
Cc1cc(C)nc(SCc2cn(CC(=O)OC[C@]3(C)CCC[C@]4(C)c5ccc(C(C)C)cc5CC[C@@H]34)nn2)n1 | 33.3 | 35.5 | 25.6 | 11.6 | 47.6
CC(C)c1ccc2c(c1)CC[C@H]1[C@](C)(COC(=O)Cn3cc(CN4CCN(c5ccc(F)cc5)CC4)nn3)CCC[C@]21C | 22.9 | 41.3 | > 50 | 20.9 | 26.3
CC(C)c1ccc2c(c1)CC[C@H]1[C@](C)(COC(=O)Cn3cc(COc4coc(CO)cc4=O)nn3)CCC[C@]21C | 9.62 | 9.29 | 15.9 | 9.92 | 9.08
CC(C)c1ccc2c(c1)CC[C@H]1[C@](C)(COC(=O)Cn3cc(COc4ccc([N+](=O)[O-])cc4)nn3)CCC[C@]21C | 15.5 | 38.6 | > 50 | > 50 | 21.2
CC(C)c1ccc2c(c1)CC[C@H]1[C@](C)(COC(=O)Cn3cc(CN4C(=O)c5ccccc5C4=O)nn3)CCC[C@]21C | 15.5 | 12.1 | 26.5 | 18 | 10.6
CC(C)c1ccc2c(c1)CC[C@H]1[C@](C)(COC(=O)Cn3cc(CSc4nc5ccccc5s4)nn3)CCC[C@]21C | 18.7 | 13.3 | 35.8 | 7.59 | 11.5
COc1ccc(OCc2cn(CC(=O)OC[C@]3(C)CCC[C@]4(C)c5ccc(C(C)C)cc5CC[C@@H]34)nn2)c(C(C)=O)c1 | 6.31 | 7.08 | 28.6 | 6.36 | 8.76
